Results taken from PMC314469, “Protein Interaction Networks by Proteome Peptide Scanning” (PLoS Biology, 2004).

What follows are sequences tested on Myo5 SH3 domain (assay: SPOT analysis of cellulose-bound peptides (WISE), Myo5 SH3 domain (Dataset S4)). Settings: SPOT analysis of cellulose-bound 14-mer yeast proteome peptides, Myo5 SH3 domain; normalized value; mean where the peptide was synthesized more than once.
Type: binding, Saccharomyces cerevisiae

Row | Sequence | The normalized value in BLU units
1 | GWSTYIPPFNPLEI | 113.7 BLU
2 | GYDEKGNPIPPNNW | 96.0 BLU
3 | HAEAFEDPSIPRIS | 324.6 BLU
4 | HATLYWAPVSPLKS | 151.3 BLU
5 | HEHNYAIPYTPATF | 129.1 BLU
6 | HEYNLALPKFPILF | 146.8 BLU
7 | HFLCLDPPIDPNNL | 122.0 BLU
8 | HLDSFSPPFSPSTT | 120.7 BLU
9 | HLFHLTTPQDPRLL | 245.7 BLU
10 | HLVVWNPPILPQHE | 117.9 BLU
11 | HNAAKPIPHVPQAS | 62.3 BLU
12 | HPEYLSLPFEPYCF | 212.9 BLU
13 | HPIHLQPPVPPVYK | 317.7 BLU
14 | IAGMLMVPESPRFL | 255.1 BLU
15 | IAKPYVLPFFPLYA | 246.9 BLU
16 | IEEGHLDPEAPDKL | 84.8 BLU
17 | IEITHSEPAIPYRE | 114.3 BLU
18 | IEVPMEYPFKPPKM | 384.5 BLU

Row | Sequence | The normalized value in BLU units
19 | IFFKLIHPFLPILH | 503.3 BLU
20 | IFQSLLHPELPIII | 239.9 BLU
21 | IGKSKSAPPIPEDT | 243.5 BLU
22 | ILFERILPILPVES | 339.9 BLU
23 | ILQILFEPMPPFNS | 200.5 BLU
24 | ILTLLKMPEVPNSV | 172.2 BLU
25 | ILVPHLDPIDPWEA | 166.0 BLU
26 | IMDAKFHPFKPQLF | 246.2 BLU
27 | INNTRLSPNSPTPP | 139.6 BLU
28 | INVEREAPMFPVPY | 148.9 BLU
29 | IPTSHAPPLPPTAP | 43593.6 BLU
30 | IPVGYVTPKFPSLY | 21.6 BLU
31 | ITDTKLFPGNPNLM | 94.6 BLU
32 | KAGSFGAPSSPTSG | 123.7 BLU
33 | KAIVWRLPKMPKIK | 515.4 BLU
34 | KAPYLVQPNVPEKH | 130.6 BLU
35 | KASSMPAPPPPPPP | 10514.9 BLU

Same assay, conditions: SPOT analysis of cellulose-bound peptides probed with Myo5 SH3 domain; normalized value

Row | Sequence | The normalized value in BLU units (SPOT analysis, Myo5 SH3)
36 | GWEPFSLPKDPKVV | 75.9 BLU
37 | GWPVYNYPMQPTTE | 167.9 BLU
38 | GWVVYPPPPKPSYN | 452.7 BLU
39 | HAVLLNPPVAPTAE | 227.5 BLU
40 | HAWDMRSPHRPFYS | 822.1 BLU
41 | HEKLYHNPSLPAQS | 78.1 BLU
42 | HFLAYTNPRAPGKL | 111.7 BLU
43 | HFNDLQSPAQPQQS | 92.5 BLU
44 | HFYEYVYPSLPFIE | 152.0 BLU
45 | HLARYIFPPNPVFH | 279.4 BLU
46 | HLTDLSPPGTPPTM | 260.8 BLU
47 | HPHPHPHPHTPTHT | 238.0 BLU
48 | HPSGLNSPKLPPLP | 456.8 BLU
49 | HPYMMVYPMSPPPP | 562.8 BLU
50 | IAECLGVPWEPVDL | 142.9 BLU
51 | IARPLSVPGSPKVR | 382.9 BLU
52 | IARSFTIPFLPKIP | 204.5 BLU
53 | IATMYPIPAYPDLL | 96.9 BLU
54 | IEFDLSKPFTPFQQ | 134.1 BLU
55 | IEPDFIEPDAPLAA | 61.4 BLU
56 | IERVWNGPVEPSDE | 180.2 BLU
57 | ILCAYNSPKVPADI | 81.4 BLU
58 | ILHQLGAPSIPENL | 174.0 BLU
59 | ILIFLWIPDDPSKA | 1371.6 BLU
60 | ILPVLNIPLPPQEK | 21.6 BLU
61 | ILQELSLPSRPVMP | 51.9 BLU
62 | ILTCLPVPPPPVRP | 616.9 BLU
63 | ILVAYGLPVSPDEK | 166.6 BLU
64 | IPLPHQPPPLPIYS | 53588.9 BLU

Same assay, conditions: SPOT analysis of membrane-bound peptides, Myo5 SH3 domain; normalized value (see methods)

Row | Sequence | The normalized value in BLU units
65 | GTGRRRSPSTPIMP | 921.0 BLU
66 | GYNPKTVPFVPISG | 108.5 BLU
67 | HEASKCFPKAPQAS | 288.6 BLU
68 | HELVKSDPHFPYGT | 229.2 BLU
69 | HEVPKRSPEKPSNP | 171.6 BLU
70 | HFNTKKIPELPSQF | 466.9 BLU
71 | HICDKMNPASPQYF | 159.1 BLU
72 | HILEKYSPFDPCGR | 166.2 BLU
73 | HLLGKEGPSAPNPS | 124.5 BLU
74 | HRLFKCTPGLPKLW | 266.0 BLU
75 | IAEWKNDPNNPNFE | 91.1 BLU
76 | IAKLKRKPVVPRLK | 888.5 BLU
77 | IAVTRSIPRGPDKN | 157.9 BLU
78 | IDIPRTNPHIPLYQ | 139.2 BLU
79 | IDKSKLSPRFPELK | 233.0 BLU
80 | IFVTRYLPYFPIMY | 156.7 BLU
81 | IKYFKKFPKDPLAM | 237.4 BLU
82 | ILAVKKNPQSPMYT | 175.4 BLU
83 | ILEGKFEPVIPREW | 93.2 BLU
84 | ILERKNIPRQPAIR | 602.9 BLU
85 | INIAKAHPNFPIAL | 195.5 BLU
86 | INNNKMRPHLPPLS | 1004.0 BLU
87 | IPAPKLVPPPPRTR | 82308.4 BLU
88 | IRTYKVVPLGPKAG | 100.2 BLU
89 | ISHNKLSPSEPILC | 206.2 BLU
90 | ISNRRPVPRRPSQP | 377.4 BLU
91 | IYHCKKQPLVPIGC | 293.5 BLU

Same assay, conditions: SPOT analysis of membrane-synthesized peptides probed with Myo5 SH3 domain; normalized value

Row | Sequence | The normalized value in BLU units (SPOT analysis, Myo5 SH3)
92 | GSYIKRTPKIPEKD | 206.2 BLU
93 | GTRPKILPKIPTGA | 772.9 BLU
94 | GTTNRGPPPLPPRA | 39858.8 BLU
95 | GTVTKTAPSFPQSS | 261.1 BLU
96 | HEREKALPPIPFTT | 214.6 BLU
97 | HFPSRSQPSDPKLQ | 257.5 BLU
98 | HKFVKSSPVVPFDD | 150.9 BLU
99 | HLVRKVAPTKPMYC | 477.5 BLU
100 | HSTPKPLPPVPALS | 143.5 BLU
101 | HTIPKSGPIVPYVL | 163.7 BLU
102 | IAGQRTFPEDPNYP | 171.7 BLU
103 | IESFRERPLEPPRK | 98.7 BLU
104 | IESLREIPYGPDFD | 115.6 BLU
105 | IGSPRHAPSRPDSI | 193.4 BLU
106 | IKMSRSPPRPPSLK | 17731.3 BLU
107 | ILKNRMNPEKPYEL | 321.6 BLU
108 | ILPPRIVPAIPKKA | 3670.9 BLU
109 | INGEKACPFLPSSL | 183.7 BLU
110 | INTFKTLPTKPEMQ | 167.1 BLU
111 | IPYEKRDPTSPAPL | 114.1 BLU
112 | IQQNKQGPKIPFYL | 86.9 BLU
113 | ISADKGFPLIPSGY | 113.3 BLU
114 | ITAEKSAPTSPEVY | 94.2 BLU
115 | ITRARYMPQDPNIV | 190.2 BLU
116 | ITSIRGSPSLPKNK | 370.3 BLU
117 | IVNEKRTPALPSNL | 101.8 BLU
118 | KAALKYHPDKPTGD | 155.5 BLU
119 | KALPKRRPSPPLQS | 1137.8 BLU
120 | KALWKIQPYLPEFS | 146.1 BLU
